Laboratory results reported in patent publication US10131652B2, “Pyrimidinyloxy benzene derivatives as herbicides” (E. I. DU PONT DE NEMOURS AND COMPANY, priority 2014, dated 2018).

Experiments:
Type in all cases: in vivo
[1] = system: barnyardgrass (Echinochloa crus-galli); experiment: Test D pre-/postemergence plant response; conditions: Postemergence; for Barnyardgrass plant response rating: scale 0 to 100 (0 no effect, 100 complete control)
Summary of the method: (§1)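 Greenhouse herbicidal response, both pre- and postemergence applications, with solvent/surfactant formulation. Postemergence plants were at 1- to 4-leaf stage. Visual scores 0–100 relative to controls, taken 13 to 15 days later.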

corn (Zea mays) = experiment: Test D pre-/postemergence plant response; conditions: Postemergence; for Corn plant response rating: scale 0 to 100 (0 no effect, 100 complete control)
Summary of the method: as §1

[2] = system: oilseed rape (Brassica napus); experiment: Test D pre-/postemergence plant response; conditions: Postemergence
Summary of the method: as §1

[3] = system: blackgrass (Alopecurus myosuroides); experiment: Test D pre-/postemergence plant response; conditions: Postemergence; for Blackgrass plant response rating: scale 0 to 100 (0 no effect, 100 complete control)
Summary of the method: as §1

[4] = system: large (Lg) crabgrass (Digitaria sanguinalis); experiment: Test D pre-/postemergence plant response; conditions: Postemergence; for Crabgrass, Large plant response rating: scale 0 to 100 (0 no effect, 100 complete control)
Summary of the method: as §1

[5] = system: pigweed (Amaranthus retroflexus); experiment: Test D pre-/postemergence plant response; conditions: Postemergence
Summary of the method: as §1

[6] = system: ragweed (common ragweed, Ambrosia elatior); experiment: Test D pre-/postemergence plant response; conditions: Postemergence
Summary of the method: as §1

[7] = system: galium (catchweed bedstraw, Galium aparine); experiment: Test D pre-/postemergence plant response; conditions: Postemergence
Summary of the method: as §1

[8] = system: Italian ryegrass (Lolium multiflorum); experiment: Test D pre-/postemergence plant response; conditions: Postemergence
Summary of the method: as §1

[9] = system: giant foxtail (Setaria faberii); experiment: Test D pre-/postemergence plant response; conditions: Postemergence; for Foxtail, Giant plant response rating: scale 0 to 100 (0 no effect, 100 complete control)
Summary of the method: as §1

[10] = system: yellow nutsedge (Cyperus esculentus); experiment: Test D pre-/postemergence plant response; conditions: Postemergence
Summary of the method: as §1

[11] = system: ragweed (common ragweed, Ambrosia elatior); experiment: Test B pre-/postemergence plant response
Summary of the method: (§2)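 Greenhouse pots, loam/sand soil; compound formulated with surfactant in non-phytotoxic solvent. Preemergence soil spray and postemergence spray at 1–2 leaf stage run simultaneously. Visual injury, 0–100, about 10 days post-treatment.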

[12] = system: Italian ryegrass (Lolium multiflorum); experiment: Test B pre-/postemergence plant response
Summary of the method: as §2

kochia (Kochia scoparia) = experiment: Test B pre-/postemergence plant response
Summary of the method: as §2

[13] = 62 g ai/ha, scale 0 to 100, 0 no effect, 100 complete control
[14] = 31 g ai/ha, scale 0 to 100 (0 no effect, 100 complete control)
[15] = 125 g ai/ha, postemergence, 0 to 100 scale, 0 no effect, 100 complete control
[16] = Postemergence, 500 g ai/ha, 0 to 100 scale (0 no effect, 100 complete control)
[17] = Preemergence, 125 g ai/ha, 0 to 100 scale (0 no effect, 100 complete control)
[18] = Preemergence, 500 g ai/ha, 0 to 100 scale where 0 is no effect and 100 is complete control

FC(F)(F)c1cc(-c2c(I)cccc2Oc2ncc(Cl)cn2)no1 [Compound 156]
Plant response rating (scale 0 to 100), Barnyardgrass ([1]; 8 g ai/ha): 0 | Barnyardgrass plant response rating ([1]; 16 g ai/ha): 0 | Barnyardgrass plant response rating ([1]; 31 g ai/ha): 0 | Plant response rating, Barnyardgrass [1, 13]: 5 | Plant response rating (scale 0 to 100), Corn (corn (Zea mays); 8 g ai/ha): 0 | Corn plant response rating (corn (Zea mays); 16 g ai/ha): 5 | Corn plant response rating (corn (Zea mays); 31 g ai/ha): 5 | Plant response rating, Corn (corn (Zea mays); [13]): 5 | Plant response rating (scale 0 to 100), Oilseed Rape ([2]; 8 g ai/ha): 5 | Oilseed Rape plant response rating [2, 14]: 40 | Plant response rating, Oilseed Rape [2, 13]: 45 | Plant response rating (scale 0 to 100), Blackgrass ([3]; 8 g ai/ha): 0 | Blackgrass plant response rating ([3]; 16 g ai/ha): 0 | Blackgrass plant response rating ([3]; 31 g ai/ha): 5 | Plant response rating, Blackgrass [3, 13]: 5 | Plant response rating (scale 0 to 100), Crabgrass, Large ([4]; 8 g ai/ha): 0 | Crabgrass, Large plant response rating ([4]; 16 g ai/ha): 5 | Crabgrass, Large plant response rating ([4]; 31 g ai/ha): 5 | Plant response rating, Crabgrass, Large [4, 13]: 10 | Plant response rating (scale 0 to 100), Pigweed ([5]; 8 g ai/ha): 15 | Pigweed plant response rating [5, 14]: 60 | Plant response rating, Pigweed [5, 13]: 75 | Plant response rating (scale 0 to 100), Ragweed ([6]; 8 g ai/ha): 0 | Ragweed plant response rating [6, 14]: 10 | Plant response rating, Ragweed [6, 13]: 15 | Plant response rating (scale 0 to 100), Galium ([7]; 8 g ai/ha): 20 | Galium plant response rating [7, 14]: 60 | Plant response rating, Galium [7, 13]: 70 | Plant response rating (scale 0 to 100), Ryegrass, Italian ([8]; 8 g ai/ha): 0 | Ryegrass, Italian plant response rating [8, 14]: 0 | Plant response rating, Ryegrass, Italian [8, 13]: 0 | Plant response rating (scale 0 to 100), Foxtail, Giant ([9]; 8 g ai/ha): 0 | Foxtail, Giant plant response rating ([9]; 16 g ai/ha): 5 | Foxtail, Giant plant response rating ([9]; 31 g ai/ha): 10 | Plant response rating, Foxtail, Giant [9, 13]: 35 | Plant response rating (scale 0 to 100), Nutsedge, Yellow ([10]; 8 g ai/ha): 0 | Nutsedge, Yellow plant response rating [10, 14]: 5 | Plant response rating, Nutsedge, Yellow [10, 13]: 5 | Plant response rating, Ragweed [11, 15]: 20 | Plant response rating, Ragweed [11, 16]: 40 | Ragweed plant response rating [11, 17]: 0 | Plant response rating, Ragweed [11, 18]: 0 | Plant response rating, Ryegrass, Italian [12, 15]: 30 | Plant response rating, Ryegrass, Italian [12, 16]: 70 | Ryegrass, Italian plant response rating [12, 17]: 0 | Plant response rating, Ryegrass, Italian [12, 18]: 0 | Plant response rating, Kochia (kochia (Kochia scoparia); [15]): 90 | Plant response rating, Kochia (kochia (Kochia scoparia); [16]): 90 | Kochia plant response rating (kochia (Kochia scoparia); [17]): 20 | Plant response rating, Kochia (kochia (Kochia scoparia); [18]): 40
